Measured values as given in patent publication US10562902B2, “IRAK4 inhibitor and use thereof” (BEIJING HANMI PHARMACEUTICAL CO., LTD., priority 2015, dated 2020).

Assays:
IRAK4 kinase = IRAK4 kinase (Homo sapiens (Human), UniProt Q9NWZ3); assay: IRAK4 kinase activity inhibition assay; assay type: biochemical; details: ADP-Glo kinase assay, 10 μM ATP, MBP substrate
In short: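 IRAK4 ([…]) in 40 mM Tris-HCl pH 7.5, 20 mM MgCl2, 0.1 mg/mL BSA and 1 mM DTT was preincubated 10 min at 25 °C with six 10-fold dilutions of compound from 10 μM. ATP (10 μM) and MBP substrate (0.1 μg/μL) were then added and reacted 60 min at 25 °C. ADP formed was read by ADP-Glo luminescence to give IC50.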

TMD-8 cells = assay: TMD-8 cell growth inhibition assay; assay type: cell-based; details: Homo sapiens, TMD8, 96 hours, CCK-8
Procedure: The compound of Example 64 and the compound of Example 74 of the invention were tested in TMD-8 cell growth inhibition assay. TMD-8 cells (available from Korea Hanmi Research Center) were cultured in RMPI-1640 medium (purchased from Gibco, Cat. No.: 22440) containing 10% fetal bovine serum (purchased from Gibco, Cat. No.: 10099-141). The TMD-8 cells in logarithmic growth phase were seeded in a 96-well plate at 20,000 cells/well/100 μL, and RMPI-1640 medium (100 μL) was added into blank control wells. The test samples were diluted with RMPI-1640 medium to 2 folds of the final concentration (10-fold dilutions starting from 10 μM, setting 6 drug concentrations, and testing in replicate wells at each concentration). The diluted test samples were added to test wells seeded with cells at 100 μL/well, and RMPI-1640 medium (100 μL) was separately added to the positive control and the blank control wells. The 96-well plate was placed in the incubator and reacted at 37° C., 5% CO2 for 96 hours. After the reaction was completed, the 96-well plate was taken from the incubator and to each well was added CCK-8 (100 μL) (purchased from DOJINDO, Cat. No.: CK04-11). Then the 96-well plate was put back to the incubator and incubated for another 2 hours.

[1] = tested on: LPS-induced TNF-α secretion in THP-1 cells; assay: LPS-induced TNF-α secretion assay in THP-1 cells; assay type: cell-based; details: Homo sapiens, 24 hours, TNF-α ELISA
Procedure: The compound of Example 133 and the compound of Example 134 of the invention were tested in LPS-induced TNF-α secretion assay in THP-1 cells. Human THP-1 cells (purchased from ATCC, Cat. No.: TIB-202) were cultured in RPMI-1640 medium (purchased from Gibco, Cat. No.: 22440) containing 10% fetal bovine serum (purchased from Gibco, Cat. No.: 10099-141) and 0.05 mM of 2-mercaptoethanol (purchased from Gibco, Cat. No.: 21985). The THP-1 cells in logarithmic growth phase were seeded in a 96-well plate at 2×10^5 cells/well/100 μL. The test samples were diluted with RMPI-1640 medium to 4 folds of the final concentration (5-fold dilutions starting from 10 μM, setting 6 drug concentrations, and testing in replicate wells at each concentration). The diluted test samples were added to the test wells seeded with cells at 50 μL/well, and RMPI-1640 medium (50 μL) was separately added to positive control and negative control wells. The 96-well plate was placed in the incubator at 37° C., 5% CO2 and pre-incubated for 2 hours. […] After incubation in the incubator at 37° C., 5% CO2 for 24 hours, the cell culture supernatant was taken and determined for the content of TNF-α in the supernatant using a human TNF-α ELISA kit (purchased from DKW, Cat. No.: 12-1720-096).

IRAK4 kinase, sequence (Q9NWZ3 whole entry): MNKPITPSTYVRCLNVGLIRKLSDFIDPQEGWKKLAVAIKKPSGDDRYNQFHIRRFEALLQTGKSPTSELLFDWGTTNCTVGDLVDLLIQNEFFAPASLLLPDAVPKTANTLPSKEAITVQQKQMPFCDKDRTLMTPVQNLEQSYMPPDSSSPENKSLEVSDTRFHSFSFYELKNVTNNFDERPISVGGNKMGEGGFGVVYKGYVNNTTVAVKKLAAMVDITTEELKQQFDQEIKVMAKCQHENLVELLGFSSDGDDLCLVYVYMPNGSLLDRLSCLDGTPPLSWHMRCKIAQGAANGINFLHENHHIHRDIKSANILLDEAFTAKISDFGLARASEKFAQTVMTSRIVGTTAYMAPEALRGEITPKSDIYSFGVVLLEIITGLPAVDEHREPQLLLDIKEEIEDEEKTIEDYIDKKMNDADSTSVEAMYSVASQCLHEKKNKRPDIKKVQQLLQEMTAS

SMILES | IC50 (IRAK4 kinase) [nM] | IC50 [1] [nM] | IC50 (TMD-8 cells) [nM]
Cc1cc(Nc2nc(OC3CCOCC3)c3c(ccn3-c3cnn(C)c3)n2)sn1 [Example 74] | ≤ 100 | – | 479
Cn1cc(-n2ccc3nc(Nc4cc(C(=O)NCCF)cs4)nc(OC4CCOCC4)c32)cn1 [Example 169] | ≤ 100 | – | –
Cn1cc(-n2ccc3nc(Nc4cc(C(=O)NCC(F)F)cs4)nc(OC4CCOCC4)c32)cn1 [Example 170] | ≤ 100 | – | –
CN(C)C(=O)c1csc(Nc2nc(OC3CCOCC3)c3c(ccn3-c3cnn(C)c3)n2)c1 [Example 171] | ≤ 100 | – | –
CCNC(=O)c1cc(Nc2nc(OC3CCOCC3)c3c(ccn3-c3cnn(C)c3)n2)cs1 [Example 173] | ≤ 100 | – | –
CN(C)C(=O)c1cc(Nc2nc(OC3CCOCC3)c3c(ccn3-c3cnn(C)c3)n2)cs1 [Example 174] | 100 to 1000 | – | –
Cn1cc(-n2ccc3nc(Nc4cc5n(c4)CCNC5=O)nc(OC4CCOCC4)c32)cn1 [Example 175] | 100 to 1000 | – | –

More lines, main results first:

IC50 (IRAK4 kinase) [nM] | IC50 [1] [nM] | SMILES | IC50 (TMD-8 cells) [nM]
≤ 100 | – | Cc1cc(Nc2nc(O[C@H]3CCOC3)c3c(ccn3-c3cnn(C)c3)n2)sn1 [Example 64] | 184
≤ 100 | 161 | CNC(=O)c1csc(Nc2nc(O[C@H]3CCOC3)c3c(ccn3-c3cnn(C)c3)n2)c1 [Example 133] | –
≤ 100 | 311 | CCNC(=O)c1csc(Nc2nc(O[C@H]3CCOC3)c3c(ccn3-c3cnn(C)c3)n2)c1 [Example 134] | –
≤ 100 | – | CN(C)C(=O)c1cc(Nc2nc(O[C@H]3CCOC3)c3c(ccn3-c3cnn(C)c3)n2)cs1 [Example 163] | –
100 to 1000 | – | CNC(=O)c1ccc(Nc2nc(O[C@H]3CCOC3)c3c(ccn3-c3cnn(C)c3)n2)s1 [Example 164] | –
1000 to 10000 | – | CNC(=O)c1csc(Nc2nc(O[C@H]3CCOC3)c3c(ccn3-c3cnn(C)c3)n2)n1 [Example 165] | –
≤ 100 | – | CNC(=O)c1cc(Nc2nc(O[C@H]3CCOC3)c3c(ccn3-c3cnn(C)c3)n2)sn1 [Example 166] | –
≤ 100 | – | CNC(=O)c1csc(Nc2nc(OC3CCOCC3)c3c(ccn3-c3cnn(C)c3)n2)c1 [Example 167] | –
≤ 100 | – | CCNC(=O)c1csc(Nc2nc(OC3CCOCC3)c3c(ccn3-c3cnn(C)c3)n2)c1 [Example 168] | –
≤ 100 | – | CNC(=O)c1cc(Nc2nc(OC3CCOCC3)c3c(ccn3-c3cnn(C)c3)n2)cs1 [Example 172] | –
